Reference: patent publication US20050026853A1, “Anti-viral 7-deaza D-nucleosides and uses thereof” (Micrologix Biotech Inc., priority 2002, published 2005)

What was measured:
[1] = overall biopharmaceutical properties / oral availability
HBV = HBV cell-based assay; set-up: species or system hepatitis B virus
Excerpt: As described herein, compounds of the instant invention show surprising and exceptionally strong inhibition of viral replication, particularly HBV. […] In certain embodiments, the invention provides compounds capable of inhibiting viral replication, preferably HBV, at clinically relevant concentrations.
HBV cell-based assays for the evaluation of anti-viral activity against HBV are known in the art (see, e.g., Korba et al., Antiviral Res. 15:217, 1991; and Korba et al., Antiviral Res. 19:55, 1992). Moreover, the compounds of the invention can be useful research tools for in vitro and cell-based assays to study the biological mechanisms of viral infection, growth, and replication, preferably for HBV. By way of background and not wishing to be bound by theory, HBV replication is unusual in that this virus has a partially […] circular DNA (all of the minus DNA strand and part of the plus strand), but replicates by way of an RNA intermediate (typically, single-stranded viral DNA is converted to double stranded DNA, which serves as the template for viral replication). That is, when the virus enters the cell, the minus-strand DNA is transported to the cell nucleus, plus strand RNA is then transcribed from the DNA, the RNA is transported to the cytoplasm, and reverse transcriptase then synthesizes viral DNA from the RNA for packaging. […]

SMILES: Nc1ncnc2c1c(F)cn2[C@H]1CC(O)[C@@H](CO)O1 (stereo partly drawn) [structure (II), 4-amino-5-fluoro-7-(2′-deoxy-β-D-erythro-pentofuranosyl) pyrrolo[2,3-d]pyrimidine]
- oral availability [1]: orally available
- overall biopharmaceutical properties [1]: good overall biopharmaceutical properties
- anti-viral activity against HBV (HBV): exhibit anti-viral activity against HBV
